Source: US20050282755A1, “Compositions having antimicrobial activity and uses thereof” (priority 2004, published 2005)
≈ marks a conversion by molar mass, not a printed value. Non-standard residues stand in square brackets, D forms with d. Residues, ends and D or L forms follow the SMILES beside them. *: point of attachment. Palmitoyl = CCCCCCCCCCCCCCCC(=O)*; Lauroyl = CCCCCCCCCCCC(=O)*

Assays:
Format in all cases: cell-based
[1] = test system: Staphylococcus aureus ATCC 29213; test: MIC, NCCLS M7-A6 broth microdilution, cation-adjusted Mueller Hinton broth (Table 9, no superscript); settings: ATCC 29213
In short: (§1)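 Log-phase bacteria were added to wells containing peptide in cation-adjusted Mueller Hinton broth at a final 5×10^5 to 1×10^6 CFU/milliliter. Plates then sat overnight at 37° C. Wells were scored visually for turbidity against a peptide-free control.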

[2] = test system: Propionibacterium acnes ATCC 6919; test: MIC, agar dilution method NCCLS M11-A6, Brucella agar, anaerobic (Table 9, superscript c); settings: ATCC 6919
In short: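 MIC taken as the lowest peptide level giving no colonies on the plate. Plates were inoculated to 1.5×10^8 CFU/milliliter, then kept anaerobically at 37° C. for 48-96 hours; method follows NCCLS M11-A6.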

[3] = test system: Staphylococcus epidermidis ATCC 12228; test: MIC, NCCLS M7-A6 broth microdilution (Table 9, no superscript); settings: ATCC 12228
In short: as §1

[4] = test system: Pseudomonas aeruginosa ATCC 27853; test: as above; settings: ATCC 27853
In short: as §1

Salmonella dublin (Lane) = test: as above
In short: as §1

[5] = test system: Escherichia coli ATCC 25922; test: as above; settings: ATCC 25922
In short: as §1

[6] = test system: Candida albicans ATCC 18804; test: MIC in yeasts, NCCLS M27-A2 broth microdilution, RPMI 1640 (Table 9, letter e); settings: ATCC 18804
In short: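 Plates incubated 24 to 48 hours at 37° C, with yeast seeded at 0.5×10^3–2.5×10^3 CFU/milliliter final in RPMI 1640 (glutamine, phenol red indicator). MIC was read as the lowest peptide concentration showing no visible growth.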

SMILES	MIC S. aureus [1]	MIC P. acnes [2]	MIC S. epidermidis [3]	MIC P. aeruginosa [4]	MIC S. dublin (Salmonella dublin (Lane))	MIC E. coli [5]	MIC C. albicans [6]
CCCCCCCCCCCCCCCC(=O)NCCCC[C@@H](NC(=O)[C@@H](CCCNC(=N)N)NC(=O)[C@@H](CCSC)NC(=O)[C@@H](Cc1ccccc1)NC(=O)[C@@H](CC(N)=O)NC(=O)[C@@H](CCCNC(=N)N)NC(=O)[C@@H](C)NC(=O)[C@H](NC(=O)[C@@H](CC(=O)O)NC(=O)[C@@H](CCCNC(=N)N)NC(=O)[C@@H](Cc1c[nH]c2ccccc12)NC(=O)[C@@H](CCCNC(=N)N)NC(=O)[C@@H](CO)NC(=O)[C@H](N)CCCNC(=N)N)C(C)C)C(N)=O [Peptide 201, H2N-rsrwrdvarnfmrk(Palmitoyl)-NH2] (H-[dR][dS][dR][dW][dR][dD][dV][dA][dR][dN][dF][dM][dR][dK](Palmitoyl)-NH2)	16 µg/mL (≈ 7.56 µM)	16c ug/mL	2 µg/mL (≈ 0.945 µM)	>64 µg/mL	16 µg/mL (≈ 7.56 µM)	32 µg/mL (≈ 15.1 µM)	2e ug/mL
CCCCCCCCCCCCCCCC(=O)N[C@H](CCCNC(=N)N)C(=O)N[C@H](CO)C(=O)N[C@H](CCCNC(=N)N)C(=O)N[C@H](Cc1c[nH]c2ccccc12)C(=O)N[C@H](CCCNC(=N)N)C(=O)N[C@H](CC(=O)O)C(=O)N[C@@H](C(=O)N[C@H](C)C(=O)N[C@H](CCCNC(=N)N)C(=O)N[C@H](CC(N)=O)C(=O)N[C@H](Cc1ccccc1)C(=O)N[C@H](CCSC)C(=O)N[C@H](CCCNC(=N)N)C(N)=O)C(C)C [Peptide 209, Palmitoyl-rsrwrdvarnfmr-NH2] (Palmitoyl-[dR][dS][dR][dW][dR][dD][dV][dA][dR][dN][dF][dM][dR]-NH2)	16 µg/mL (≈ 8.05 µM)	32c ug/mL	8 µg/mL (≈ 4.03 µM)	>64 µg/mL	32 µg/mL (≈ 16.1 µM)	>64 µg/mL	8e ug/mL
CCCCCCCCCCCC(=O)N[C@H](CCCNC(=N)N)C(=O)N[C@H](CO)C(=O)N[C@H](CCCNC(=N)N)C(=O)N[C@H](Cc1c[nH]c2ccccc12)C(=O)N[C@H](CCCNC(=N)N)C(=O)N[C@H](CCC(=O)O)C(=O)N[C@@H](C(=O)N[C@H](C)C(=O)N[C@H](CCCNC(=N)N)C(=O)N[C@H](CC(N)=O)C(=O)N[C@H](Cc1ccccc1)C(=O)N[C@H](CC(C)C)C(=O)N[C@H](CCCNC(=N)N)C(N)=O)C(C)C [Peptide 221, Lauryl-rsrwrevarnflr-NH2] (Lauroyl-[dR][dS][dR][dW][dR][dE][dV][dA][dR][dN][dF][dL][dR]-NH2)	4 µg/mL (≈ 2.08 µM)	32c ug/mL	2 µg/mL (≈ 1.04 µM)	8 µg/mL (≈ 4.15 µM)	8 µg/mL (≈ 4.15 µM)	8 µg/mL (≈ 4.15 µM)	2e ug/mL
CCCCCCCCCCCC(=O)N[C@H](CCCNC(=N)N)C(=O)N[C@H](CCCNC(=N)N)C(=O)N[C@H](CCCNC(=N)N)C(=O)N[C@H](Cc1c[nH]c2ccccc12)C(=O)N[C@H](CCCNC(=N)N)C(=O)N[C@H](CCCNC(=N)N)C(=O)N[C@@H](C(=O)N[C@H](C)C(=O)N[C@H](CCCNC(=N)N)C(=O)N[C@H](CCCNC(=N)N)C(=O)N[C@H](Cc1ccccc1)C(=O)N[C@H](CC(C)C)C(=O)N[C@H](CCCNC(=N)N)C(N)=O)C(C)C [Peptide 222, Lauryl-rrrwrrvarrflr-NH2] (Lauroyl-[dR][dR][dR][dW][dR][dR][dV][dA][dR][dR][dF][dL][dR]-NH2)	4 µg/mL (≈ 1.94 µM)	>64c ug/mL	1 µg/mL (≈ 0.484 µM)	8 µg/mL (≈ 3.87 µM)	>64 µg/mL	16 µg/mL (≈ 7.75 µM)	2e ug/mL
CCCCCCCCCCCC(=O)N[C@H](CCCNC(=N)N)C(=O)N[C@H](CCCCN)C(=O)N[C@H](CCCNC(=N)N)C(=O)N[C@H](Cc1c[nH]c2ccccc12)C(=O)N[C@H](CCCNC(=N)N)C(=O)N[C@H](CCCCN)C(=O)N[C@@H](C(=O)N[C@H](C)C(=O)N[C@H](CCCNC(=N)N)C(=O)N[C@H](CCCCN)C(=O)N[C@H](Cc1ccccc1)C(=O)N[C@H](CC(C)C)C(=O)N[C@H](CCCNC(=N)N)C(N)=O)C(C)C [Peptide 223, Lauryl-rkrwrkvarkflr-NH2] (Lauroyl-[dR][dK][dR][dW][dR][dK][dV][dA][dR][dK][dF][dL][dR]-NH2)	4 µg/mL (≈ 2.02 µM)	>64c ug/mL	2 µg/mL (≈ 1.01 µM)	8 µg/mL (≈ 4.04 µM)	32 µg/mL (≈ 16.1 µM)	16 µg/mL (≈ 8.07 µM)	4e ug/mL
CCCCCCCCCCCC(=O)N[C@H](CCCNC(=N)N)C(=O)N[C@H](C)C(=O)N[C@H](CCCNC(=N)N)C(=O)N[C@H](Cc1c[nH]c2ccccc12)C(=O)N[C@H](CCCNC(=N)N)C(=O)N[C@H](CC(=O)O)C(=O)N[C@@H](C(=O)N[C@H](C)C(=O)N[C@H](CCCNC(=N)N)C(=O)N[C@H](CC(N)=O)C(=O)N[C@H](Cc1ccccc1)C(=O)N[C@H](CCSC)C(=O)N[C@H](CCCNC(=N)N)C(N)=O)C(C)C [Peptide 237, Lauryl-rarwrdvarnfmr-NH2] (Lauroyl-[dR][dA][dR][dW][dR][dD][dV][dA][dR][dN][dF][dM][dR]-NH2)	4 µg/mL (≈ 2.09 µM)	16c ug/mL	1 µg/mL (≈ 0.522 µM)	8 µg/mL (≈ 4.18 µM)	4 µg/mL (≈ 2.09 µM)	4 µg/mL (≈ 2.09 µM)	16e ug/mL
CCCCCCCCCCCC(=O)N[C@H](CCCNC(=N)N)C(=O)N[C@H](CO)C(=O)N[C@H](C)C(=O)N[C@H](Cc1c[nH]c2ccccc12)C(=O)N[C@H](CCCNC(=N)N)C(=O)N[C@H](CC(=O)O)C(=O)N[C@@H](C(=O)N[C@H](C)C(=O)N[C@H](CCCNC(=N)N)C(=O)N[C@H](CC(N)=O)C(=O)N[C@H](Cc1ccccc1)C(=O)N[C@H](CCSC)C(=O)N[C@H](CCCNC(=N)N)C(N)=O)C(C)C [Peptide 238, Lauryl-rsawrdvarnfmr-NH2] (Lauroyl-[dR][dS][dA][dW][dR][dD][dV][dA][dR][dN][dF][dM][dR]-NH2)	8 µg/mL (≈ 4.33 µM)	32c ug/mL	8 µg/mL (≈ 4.33 µM)	64 µg/mL (≈ 34.7 µM)	8 µg/mL (≈ 4.33 µM)	8 µg/mL (≈ 4.33 µM)	16e ug/mL
CCCCCCCCCCCC(=O)N[C@H](CCCNC(=N)N)C(=O)N[C@H](CO)C(=O)N[C@H](CCCNC(=N)N)C(=O)N[C@H](C)C(=O)N[C@H](CCCNC(=N)N)C(=O)N[C@H](CC(=O)O)C(=O)N[C@@H](C(=O)N[C@H](C)C(=O)N[C@H](CCCNC(=N)N)C(=O)N[C@H](CC(N)=O)C(=O)N[C@H](Cc1ccccc1)C(=O)N[C@H](CCSC)C(=O)N[C@H](CCCNC(=N)N)C(N)=O)C(C)C [Peptide 239, Lauryl-rsrardvarnfmr-NH2] (Lauroyl-[dR][dS][dR][dA][dR][dD][dV][dA][dR][dN][dF][dM][dR]-NH2)	16 µg/mL (≈ 8.81 µM)	8c ug/mL	4 µg/mL (≈ 2.2 µM)	32 µg/mL (≈ 17.6 µM)	64 µg/mL (≈ 35.2 µM)	16 µg/mL (≈ 8.81 µM)	64e ug/mL
CCCCCCCCCCCC(=O)N[C@H](CCCNC(=N)N)C(=O)N[C@H](CO)C(=O)N[C@H](CCCNC(=N)N)C(=O)N[C@H](Cc1c[nH]c2ccccc12)C(=O)N[C@H](C)C(=O)N[C@H](CC(=O)O)C(=O)N[C@@H](C(=O)N[C@H](C)C(=O)N[C@H](CCCNC(=N)N)C(=O)N[C@H](CC(N)=O)C(=O)N[C@H](Cc1ccccc1)C(=O)N[C@H](CCSC)C(=O)N[C@H](CCCNC(=N)N)C(N)=O)C(C)C [Peptide 240, Lauryl-rsrwadvarnfmr-NH2] (Lauroyl-[dR][dS][dR][dW][dA][dD][dV][dA][dR][dN][dF][dM][dR]-NH2)	2 µg/mL (≈ 1.08 µM)	16c ug/mL	2 µg/mL (≈ 1.08 µM)	16 µg/mL (≈ 8.67 µM)	4 µg/mL (≈ 2.17 µM)	4 µg/mL (≈ 2.17 µM)	16e ug/mL
